# Experimental data published in ChEMBL document CHEMBL1148392 (J Med Chem, 2004).
# How the values were obtained:
# Carbonic anhydrase 1 = Carbonic anhydrase 1 (Homo sapiens, UniProt P00915)
# Description: Inhibitory activity against human carbonic anhydrase I was determined
# Oryctolagus cuniculus [1] = species on record: Oryctolagus cuniculus; conditions: dose 30 mg/kg
# Description: Variation of intraocular pressure in sixth day at a dose of 30 mg/kg by systemic administration in hypertensive rabbits
# Oryctolagus cuniculus [2] = species on record: Oryctolagus cuniculus; conditions: dose 30 mg/kg; remark: listed apart in the source
# Description: Variation of intraocular pressure in second day at a dose of 30 mg/kg by systemic administration in hypertensive rabbits
# Carbonic anhydrase 4 = target: T1, Carbonic anhydrase 4 (Bos taurus, UniProt Q95323)
# T1 sequence (Q95323 whole entry): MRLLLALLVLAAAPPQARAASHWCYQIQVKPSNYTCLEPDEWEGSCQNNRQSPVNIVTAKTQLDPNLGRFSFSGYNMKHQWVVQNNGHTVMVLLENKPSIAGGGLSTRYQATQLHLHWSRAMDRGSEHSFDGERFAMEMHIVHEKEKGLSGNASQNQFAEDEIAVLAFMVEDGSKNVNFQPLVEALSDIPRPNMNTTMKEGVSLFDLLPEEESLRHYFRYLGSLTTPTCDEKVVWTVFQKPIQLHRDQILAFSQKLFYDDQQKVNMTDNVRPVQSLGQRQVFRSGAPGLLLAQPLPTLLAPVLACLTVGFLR
# Description: Inhibitory activity against bovine carbonic anhydrase IV was determined
# Oryctolagus cuniculus [3] = species on record: Oryctolagus cuniculus; conditions: dose 30 mg/kg; remark: listed apart in the source
# Description: Variation of intraocular pressure in fourth day at a dose of 30 mg/kg at a dose by systemic administration in hypertensive rabbits
# Oryctolagus cuniculus [4] = test: Variation of intraocular pressure in fifth day at a dose of 30 mg/kg by systemic administration in hypertensive rabbits; type: functional, Eye
# Oryctolagus cuniculus [5] = species on record: Oryctolagus cuniculus; conditions: dose 30 mg/kg; remark: listed apart in the source
# Description: Variation of intraocular pressure in seventh day at a dose of 30 mg/kg by systemic administration in hypertensive rabbits
# Oryctolagus cuniculus [6] = species on record: Oryctolagus cuniculus; conditions: dose 30 mg/kg; remark: listed apart in the source
# Description: Variation of intraocular pressure in third day at a dose of 30 mg/kg by systemic administration in hypertensive rabbits
# Carbonic anhydrase 2 = Carbonic anhydrase 2 (Homo sapiens, UniProt P00918)
# Description: Inhibitory activity against human carbonic anhydrase II was determined
# Carbonic anhydrase 9 = Carbonic anhydrase 9 (Homo sapiens, UniProt Q16790)
# Description: Inhibitory activity against human carbonic anhydrase IX was determined
# Oryctolagus cuniculus [7] = species on record: Oryctolagus cuniculus; conditions: dose 30 mg/kg; remark: listed apart in the source
# Description: Variation of intraocular pressure in day one at a dose of 30 mg/kg by systemic administration in hypertensive rabbits
# Carbonic anhydrase 1, sequence (P00915 whole entry): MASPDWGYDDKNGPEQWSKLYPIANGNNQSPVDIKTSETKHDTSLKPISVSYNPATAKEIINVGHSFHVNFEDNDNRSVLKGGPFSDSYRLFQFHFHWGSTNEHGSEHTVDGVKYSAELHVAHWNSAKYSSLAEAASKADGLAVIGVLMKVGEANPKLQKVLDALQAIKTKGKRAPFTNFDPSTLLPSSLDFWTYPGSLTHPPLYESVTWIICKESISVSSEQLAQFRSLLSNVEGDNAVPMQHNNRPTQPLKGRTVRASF
SMILES,IC50 (Carbonic anhydrase 1),Delta IOP (Oryctolagus cuniculus [1]),Delta IOP (Oryctolagus cuniculus [2]),IC50 (Carbonic anhydrase 4),Delta IOP (Oryctolagus cuniculus [3]),Delta IOP (Oryctolagus cuniculus [4]),Delta IOP (Oryctolagus cuniculus [5]),Delta IOP (Oryctolagus cuniculus [6]),IC50 (Carbonic anhydrase 2),IC50 (Carbonic anhydrase 9),Delta IOP (Oryctolagus cuniculus [7])
CS(=O)(=O)c1ccc(-n2cc(-c3ccc(F)cc3)c(C(F)(F)F)n2)cc1,> 100 µM,0.34 mmHg,0.31 mmHg,> 100 µM,0.25 mmHg,0.16 mmHg,0.16 mmHg,0.22 mmHg,> 100 µM,> 100 µM,0.14 mmHg
Cc1ccc(-c2cc(C(F)(F)F)nn2-c2ccc(S(N)(=O)=O)cc2)cc1 [CELECOXIB],–,–,–,–,–,–,–,–,–,0.016 µM,–
COc1ccc(-n2nc(C(F)(F)F)cc2-c2ccc(Cl)cc2)cc1 [SC-560],> 100 µM,0.41 mmHg,0.017 mmHg,> 100 µM,0.34 mmHg,0.3 mmHg,0.52 mmHg,0.25 mmHg,> 100 µM,> 100 µM,0.23 mmHg
